# Data taken from patent US7462600B2, “Macrolides” (Pfizer Inc, priority 2004, dated 2008).
# How the values were obtained:
# Type in all cases: cell-based
# [1] = tested on: Streptococcus pneumoniae 1175; details: Streptococcus pneumoniae 1175; microtiter broth dilution
# Outline: (§1)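 Susceptibility testing used microtiter trays with broth dilution. Values are minimum inhibitory concentrations interpreted under NCCLS guidance (M100-S14).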
# [2] = tested on: Streptococcus pneumoniae 1095; details: Streptococcus pneumoniae 1095; microtiter broth dilution
# Outline: as §1
# [3] = tested on: Streptococcus pneumoniae 1016; experiment: MIC, microtiter broth dilution (NCCLS M100-S14), S. pneumoniae 1016 (susceptible); details: Streptococcus pneumoniae 1016
# Outline: as §1
# [4] = tested on: Streptococcus pyogenes 1079; experiment: MIC, microtiter broth dilution (NCCLS M100-S14), S. pyogenes 1079 (ermB); details: Streptococcus pyogenes 1079
# Outline: as §1
# [5] = tested on: Haemophilus influenzae 1218; experiment: MIC, microtiter broth dilution (NCCLS M100-S14), H. influenzae 1218 (susceptible); details: Haemophilus influenzae 1218
# Outline: as §1
SMILES,MIC S. pneumo. 1175 [1] [µg/mL],MIC S. pneumo. 1095 [2] [µg/mL],MIC S. pneumo. 1016 [3] [µg/mL],MIC S. pyogenes 1079 [4] [µg/mL],MIC H. influenzae 1218 [5] [µg/mL]
"CCC1OC(=O)C(C)C(=O)C(C)C(OC2OC(C)CC(N(C)C)C2O)C(C)(OC)CC(C)C(=O)C(C)C2N(C3CN(S(=O)(=O)c4cccc(Oc5ccc(F)cc5)c4)C3)C(=O)OC12C (stereo not shown) [Example 3.110, 3-descladinosyl-11,12-dideoxy-6-O-methyl-3-oxo-12,11-(oxycarbonyl-(1-(3-(4-fluorophenoxy)benzene-1-sulfonyl)-azetidin-3-yl)-imino)erythromycin A]",<0.063,<0.063,<0.063,4,2
"CCC1OC(=O)C(C)C(=O)C(C)C(OC2OC(C)CC(N(C)C)C2O)C(C)(OC)CC(C)C(=O)C(C)C2N(C3CN(S(=O)(=O)c4ccc(C)c5ncccc45)C3)C(=O)OC12C (stereo not shown) [Example 3.111, 3-descladinosyl-11,12-dideoxy-6-O-methyl-3-oxo-12,11-(oxycarbonyl-(1-(8-methylquinoline-5-sulfonyl)-azetidin-3-yl)-imino)erythromycin A]",<0.063,<0.063,<0.063,1,0.5
"CCC1OC(=O)C(C)C(=O)C(C)C(OC2OC(C)CC(N(C)C)C2O)C(C)(OC)CC(C)C(=O)C(C)C2N(C3CN(S(=O)(=O)c4ccc(OC)c5nccnc45)C3)C(=O)OC12C (stereo not shown) [Example 3.112, 3-descladinosyl-11,12-dideoxy-6-O-methyl-3-oxo-12,11-(oxycarbonyl-(1-(8-methoxyquinoxaline-5-sulfonyl)-azetidin-3-yl)-imino)erythromycin A]",0.25,<0.063,<0.063,0.125,2
"CCC1OC(=O)C(C)C(=O)C(C)C(OC2OC(C)CC(N(C)C)C2O)C(C)(OC)CC(C)C(=O)C(C)C2N(C3CN(S(=O)(=O)c4ccc(OC(F)F)c5ncccc45)C3)C(=O)OC12C (stereo not shown) [Example 3.113, 3-descladinosyl-11,12-dideoxy-6-O-methyl-3-oxo-12,11-(oxycarbonyl-(1-(8-(difluoromethoxy)quinoline-5-sulfonyl)-azetidin-3-yl)-imino)-erythromycin A]",<0.063,<0.063,<0.063,0.5,1
"CCC1OC(=O)C(C)C(=O)C(C)C(OC2OC(C)CC(N(C)C)C2O)C(C)(OC)CC(C)C(=O)C(C)C2N(C3CN(S(=O)(=O)c4ccc(C)c5nccnc45)C3)C(=O)OC12C (stereo not shown) [Example 3.114, 3-descladinosyl-11,12-dideoxy-6-O-methyl-3-oxo-12,11-(oxycarbonyl-(1-(8-methylquinoxaline-5-sulfonyl)-azetidin-3-yl)-imino)-erythromycin A]",<0.063,0.125,<0.063,1,0.25
"CCC1OC(=O)C(C)C(=O)C(C)C(OC2OC(C)CC(N(C)C)C2O)C(C)(OC)CC(C)C(=O)C(C)C2N(C3CN(S(=O)(=O)c4ccc(N5CCOC5=O)cc4)C3)C(=O)OC12C (stereo not shown) [Example 3.115, 3-descladinosyl-11,12-dideoxy-6-O-methyl-3-oxo-12,11-(oxycarbonyl-(1-(4-(2-oxooxazolidin-3-yl)benzene-1-sulfonyl)-azetidin-3-yl)-imino)-erythromycin A]",0.125,<0.063,<0.063,0.25,1
"CCC1OC(=O)C(C)C(=O)C(C)C(OC2OC(C)CC(N(C)C)C2O)C(C)(OC)CC(C)C(=O)C(C)C2N(C3CN(S(=O)(=O)c4ccc5c(c4)N(C)S(=O)(=O)N5C)C3)C(=O)OC12C (stereo not shown) [Example 3.116, 3-descladinosyl-11,12-dideoxy-6-O-methyl-3-oxo-12,11-(oxycarbonyl-(1-(1,3-dimethyl-2,1,3-benzothiadiazole-2,2-dioxide-0-5-sulfonyl)-azetidin-3-yl)-imino)-erythromycin A]",<0.063,<0.063,<0.063,0.5,0.5
"CCc1nn(C)c2ccc(S(=O)(=O)N3CC(N4C(=O)OC5(C)C(CC)OC(=O)C(C)C(=O)C(C)C(OC6OC(C)CC(N(C)C)C6O)C(C)(OC)CC(C)C(=O)C(C)C45)C3)cc12 (stereo not shown) [Example 3.117, 3-descladinosyl-11,12-dideoxy-6-O-methyl-3-oxo-12,11-(oxycarbonyl-(1-(3-ethyl-1-methyl-1H-indazole-5-sulfonyl)-azetidin-3-yl)-imino)-erythromycin A]",<0.063,<0.063,<0.063,1,1
"CCC1OC(=O)C(C)C(=O)C(C)C(OC2OC(C)CC(N(C)C)C2O)C(C)(OC)CC(C)C(=O)C(C)C2N(CC3CN(C(c4ccccc4)c4ccccc4)C3)C(=O)OC12C (stereo not shown) [Example 4.01, 3-descladinosyl-11,12-dideoxy-6-O-methyl-3-oxo-12,11-(oxycarbonyl-(1-(benzhydryl)-(azetidin-3-yl)-methyl)-imino)-erythromycin A]",0.39,0.39,<0.00,6.25,6.25
"CCC1OC(=O)C(C)C(=O)C(C)C(OC2OC(C)CC(N(C)C)C2O)C(C)(OC)CC(C)C(=O)C(C)C2N(CC3CN(Cc4ccc5ncccc5c4)C3)C(=O)OC12C (stereo not shown) [Example 4.14, 3-descladinosyl-11,12-dideoxy-6-O-methyl-3-oxo-12,11-(oxycarbonyl-(1-((quinolin-6-yl)-methyl)-(azetidin-3-yl)-methyl)-imino)-erythromycin A]",<0.06,<0.06,<0.06,8,0.5
"CCC1OC(=O)C(C)C(=O)C(C)C(OC2OC(C)CC(N(C)C)C2O)C(C)(OC)CC(C)C(=O)C(C)C2N(CC3CN(Cc4c[nH]c5ncccc45)C3)C(=O)OC12C (stereo not shown) [Example 4.18, 3-descladinosyl-11,12-dideoxy-6-O-methyl-3-oxo-12,11-(oxycarbonyl-(1-((1H-pyrrolo[2,3-b]pyridin-3-yl)-methyl)-(azetidin-3-yl)-methyl)-imino)-erythromycin A]",0.5,0.12,<0.06,8,0.25
"CCC1OC(=O)C(C)C(=O)C(C)C(OC2OC(C)CC(N(C)C)C2O)C(C)(OC)CC(C)C(=O)C(C)C2N(CC3CN(Cc4c(C)ccc5nc[nH]c45)C3)C(=O)OC12C.O=CO (stereo not shown) [Example 4.44, 3-descladinosyl-11,12-dideoxy-6-O-methyl-3-oxo-12,11-(oxycarbonyl-(1-((6-methyl-1H-benzo[d]imidazol-7-yl)-methyl)-(azetidin-3-yl)-methyl)-imino)-erythromycin A]",<0.06,0.5,<0.06,8,0.25
"CC[C@H]1OC(=O)[C@H](C)[C@@H](OC(=O)N2CCCC2)[C@H](C)[C@@H](O[C@@H]2O[C@H](C)C[C@H](N(C)C)[C@H]2O)[C@](C)(OC)C[C@@H](C)C(=O)[C@H](C)[C@H]2N(CC3CN(C(=O)c4ccnc5ccccc45)C3)C(=O)O[C@]12C [Example 5.01, 2-R^2: quinoline-4-carboxyl; R^#: pyrrolidin-1-yl]",<0.06,0.5,<0.06,64,2
"CC[C@H]1OC(=O)[C@H](C)[C@@H](OC(=O)N2CCCC2C)[C@H](C)[C@@H](O[C@@H]2O[C@H](C)C[C@H](N(C)C)[C@H]2O)[C@](C)(OC)C[C@@H](C)C(=O)[C@H](C)[C@H]2N(CC3CN(Cc4c[nH]c5ncccc45)C3)C(=O)O[C@]12C (stereo partly shown) [Example 5.03, 3-descladinosyl-11,12-dideoxy-6-O-methyl-12,11-(oxycarbonyl-(1-((1H-pyrrolo[2,3-b]pyridin-3-yl)-methyl)-(azetidin-3-yl)-methyl)-imino)-3-((2-methylpyrrolidine)-1-carbonyl)-erythromycin A]",<0.06,<0.06,<0.06,0.5,2
